How the values were obtained:
Assay type in all cases: in vivo
[1] = test system: barnyardgrass (Echinochloa crus-galli); assay: Test A postemergence, barnyardgrass; settings: Postemergence, 0 to 100 scale (0 no effect, 100 complete control); for Barnyardgrass plant response rating: 500 g ai/ha, visual injury vs untreated controls after approx. 10 days
Method in brief: (§1)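 Greenhouse pot test in a loam–sand blend; compounds delivered in a non-phytotoxic solvent carrying a surfactant, applied either as a directed spray to soil at seeding or over seedlings 2 to 10 cm high with one to two leaves.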

[2] = test system: pigweed (Amaranthus retroflexus); assay: Test A postemergence, pigweed; settings: Postemergence; for Pigweed plant response rating: 500 g ai/ha, visual injury vs untreated controls after approx. 10 days
Method in brief: (§2)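 Postemergence ratings come from foliar sprays onto one- to two-leaf plants of 2 to 10 cm grown in loam/sand; preemergence ratings come from a directed spray onto the soil of newly seeded pots. Formulation was a surfactant-containing non-phytotoxic solvent blend.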

[3] = test system: ragweed (common ragweed, Ambrosia artemisiifolia); assay: Test A postemergence, ragweed; settings: Postemergence; for Ragweed plant response rating: 500 g ai/ha, visual injury vs untreated controls after approx. 10 days
Method in brief: as §2

[4] = test system: Ryegrass, Italian (Italian ryegrass, Lolium multiflorum); assay: Test A postemergence, Ryegrass, Italian; settings: Postemergence; for Ryegrass, Italian plant response rating: 500 g ai/ha, visual injury vs untreated controls after approx. 10 days
Method in brief: as §2

[5] = test system: ragweed (common ragweed, Ambrosia artemisiifolia); assay: Test A preemergence, ragweed; settings: Preemergence; for Ragweed plant response rating: 125 g ai/ha, visual injury on 0 to 100 scale (0 no effect, 100 complete control), approximately 10 days; for Plant response rating, Ragweed: 0 to 100 scale (0 no effect, 100 complete control)
Method in brief: as §2

[6] = test system: wheat (Triticum aestivum); assay: Test A postemergence, wheat; settings: Postemergence; for Wheat plant response rating: 500 g ai/ha, visual injury vs untreated controls after approx. 10 days
Method in brief: as §1

kochia (Bassia scoparia) [7] = assay: Test A postemergence, kochia; settings: Postemergence; for Kochia plant response rating: 500 g ai/ha, visual injury vs untreated controls after approx. 10 days
Method in brief: as §2

[8] = test system: blackgrass (Alopecurus myosuroides); assay: Test A postemergence, blackgrass; settings: Postemergence, 0 to 100 scale (0 no effect, 100 complete control); for Blackgrass plant response rating: 500 g ai/ha, visual injury vs untreated controls after approx. 10 days
Method in brief: as §2

corn (Zea mays) = assay: Test A postemergence, corn; settings: Postemergence; for Corn plant response rating: 500 g ai/ha, visual injury vs untreated controls after approx. 10 days
Method in brief: as §2

[9] = test system: barnyardgrass (Echinochloa crus-galli); assay: Test A preemergence, barnyardgrass; settings: Preemergence; for Barnyardgrass plant response rating: 125 g ai/ha, visual injury on 0 to 100 scale (0 no effect, 100 complete control), approximately 10 days; for Plant response rating, Barnyardgrass: 0 to 100 scale (0 no effect, 100 complete control)
Method in brief: as §2

[10] = test system: Foxtail, Giant (giant foxtail, Setaria faberi); assay: Test A preemergence, Foxtail, Giant; settings: Preemergence; for Foxtail, Giant plant response rating: 125 g ai/ha, visual injury on 0 to 100 scale (0 no effect, 100 complete control), approximately 10 days; for Plant response rating, Foxtail, Giant: 0 to 100 scale (0 no effect, 100 complete control)
Method in brief: as §2

kochia (Bassia scoparia) [11] = assay: Test A preemergence, kochia; settings: Preemergence; for Kochia plant response rating: 125 g ai/ha, visual injury on 0 to 100 scale (0 no effect, 100 complete control), approximately 10 days; for Plant response rating, Kochia: 0 to 100 scale (0 no effect, 100 complete control)
Method in brief: as §2

[12] = test system: pigweed (Amaranthus retroflexus); assay: Test A preemergence, pigweed; settings: for Pigweed plant response rating: 125 g ai/ha, visual injury on 0 to 100 scale (0 no effect, 100 complete control), approximately 10 days; for Plant response rating, Pigweed: 0 to 100 scale (0 no effect, 100 complete control)
Method in brief: as §1

[13] = test system: Ryegrass, Italian (Italian ryegrass, Lolium multiflorum); assay: Test A preemergence, Ryegrass, Italian; settings: Preemergence; for Ryegrass, Italian plant response rating: 125 g ai/ha, visual injury on 0 to 100 scale (0 no effect, 100 complete control), approximately 10 days; for Plant response rating, Ryegrass, Italian: 0 to 100 scale (0 no effect, 100 complete control)
Method in brief: as §2

[14] = test system: Foxtail, Giant (giant foxtail, Setaria faberi); assay: Test A postemergence, Foxtail, Giant; settings: Postemergence; for Foxtail, Giant plant response rating: 500 g ai/ha, visual injury vs untreated controls after approx. 10 days
Method in brief: as §2

[15] = test system: galium (catchweed bedstraw, Galium aparine); assay: Test A postemergence, galium; settings: Postemergence; for Galium plant response rating: 500 g ai/ha, visual injury vs untreated controls after approx. 10 days
Method in brief: as §1

[16] = 125 g ai/ha, visual injury approx. 10 days
[17] = 125 g ai/ha, visual injury approx. 10 days, 0 to 100 scale (0 no effect, 100 complete control)
[18] = 0 to 100 scale (0 no effect, 100 complete control)
[19] = 31 g ai/ha, visual injury on 0 to 100 scale (0 no effect, 100 complete control), approx. 10 days
[20] = 31 g ai/ha, visual injury, approx. 10 days

Structure (SMILES) | Plant response rating, Barnyardgrass [1, 16] | Plant response rating, Pigweed [2, 17] | Plant response rating, Ragweed [3, 17] | Plant response rating, Ryegrass, Italian [4, 17] | Ragweed plant response rating [5] | Plant response rating, Wheat [6, 17] | Plant response rating, Kochia (kochia (Bassia scoparia) [7]; [17]) | Plant response rating, Blackgrass [8, 16] | Plant response rating, Corn (corn (Zea mays); [17]) | Barnyardgrass plant response rating [9] | Foxtail, Giant plant response rating [10] | Kochia plant response rating (kochia (Bassia scoparia) [11]) | Pigweed plant response rating [12] | Ryegrass, Italian plant response rating [13] | Plant response rating, Foxtail, Giant [14, 17] | Plant response rating, Galium [15, 17] | Plant response rating, Barnyardgrass ([1]; 31 g ai/ha) | Plant response rating, Pigweed [2, 19] | Plant response rating, Ragweed [3, 19] | Plant response rating, Ryegrass, Italian [4, 19] | other results
COC1CCN(C(=O)c2cc(NS(=O)(=O)C(F)(F)F)c(C)c(F)c2C)CC1 [Compound 110] | 20 | 70 | 90 | 0 | 80 | 20 | 10 | 0 | 0 | 40 | 90 | 80 | 80 | 20 | 0 | 70 |  |  |  |  | Barnyardgrass plant response rating [1]: 80; Pigweed plant response rating [2, 18]: 100; Ragweed plant response rating [3, 18]: 90; Ryegrass, Italian plant response rating [4, 18]: 50; Plant response rating, Ragweed ([5]; 500 g ai/ha): 90; Wheat plant response rating [6, 18]: 60; Kochia plant response rating (kochia (Bassia scoparia) [7]; [18]): 50; Blackgrass plant response rating [8]: 0; Corn plant response rating (corn (Zea mays); [18]): 10; Plant response rating, Barnyardgrass ([9]; 500 g ai/ha): 90; Plant response rating, Foxtail, Giant ([10]; 500 g ai/ha): 100; Plant response rating, Kochia (kochia (Bassia scoparia) [11]; 500 g ai/ha): 100; Plant response rating, Pigweed ([12]; 500 g ai/ha): 100; Plant response rating, Ryegrass, Italian ([13]; 500 g ai/ha): 90; Foxtail, Giant plant response rating [14, 18]: 90; Galium plant response rating [15, 18]: 80
COC1CN(C(=O)c2cc(NS(=O)(=O)C(F)(F)F)c(C)cc2C)C1 [Compound 111] | 80 | 90 | 90 | 30 | 40 | 50 | 60 | 0 | 40 | 30 | 60 | 50 | 90 | 70 | 60 | 70 | 40 | 20 | 70 | 30 | Plant response rating, Ragweed [5, 20]: 10; Plant response rating, Wheat [6, 19]: 0; Plant response rating, Kochia (kochia (Bassia scoparia) [7]; [19]): 20; Plant response rating, Blackgrass ([8]; 31 g ai/ha): 0; Plant response rating, Corn (corn (Zea mays); [19]): 0; Plant response rating, Barnyardgrass [9, 20]: 10; Plant response rating, Foxtail, Giant [10, 20]: 0; Plant response rating, Kochia (kochia (Bassia scoparia) [11]; [20]): 0; Plant response rating, Pigweed [12, 20]: 10; Plant response rating, Ryegrass, Italian [13, 20]: 0; Plant response rating, Foxtail, Giant [14, 19]: 0; Plant response rating, Galium [15, 19]: 50
Cc1cc(C)c(C(=O)N2COC(C)(C)C2)cc1NS(=O)(=O)C(F)(F)F [Compound 112] | 70 | 60 | 90 | 60 | 90 | 40 | 30 | 30 | 20 | 30 | 50 | 60 | 100 | 30 | 50 | 90 | 40 | 50 | 80 | 0 | Plant response rating, Ragweed [5, 20]: 30; Plant response rating, Wheat [6, 19]: 0; Plant response rating, Kochia (kochia (Bassia scoparia) [7]; [19]): 20; Plant response rating, Blackgrass ([8]; 31 g ai/ha): 0; Plant response rating, Corn (corn (Zea mays); [19]): 0; Plant response rating, Barnyardgrass [9, 20]: 20; Plant response rating, Kochia (kochia (Bassia scoparia) [11]; [20]): 10; Plant response rating, Pigweed [12, 20]: 50; Plant response rating, Ryegrass, Italian [13, 20]: 0; Plant response rating, Foxtail, Giant [14, 19]: 10; Plant response rating, Galium [15, 19]: 90
COC1CCN(C(=O)c2cc(NS(=O)(=O)C(F)(F)F)c(C)cc2C)C1 (stereo not drawn) [Compound 113] | 80 | 90 | 90 | 50 | 60 | 20 | 50 | 0 | 0 | 20 | 60 | 50 | 90 | 80 | 30 | 80 | 20 | 80 | 80 | 20 | Plant response rating, Ragweed [5, 20]: 0; Plant response rating, Wheat [6, 19]: 0; Plant response rating, Kochia (kochia (Bassia scoparia) [7]; [19]): 10; Plant response rating, Blackgrass ([8]; 31 g ai/ha): 0; Plant response rating, Corn (corn (Zea mays); [19]): 0; Plant response rating, Barnyardgrass [9, 20]: 0; Plant response rating, Foxtail, Giant [10, 20]: 10; Plant response rating, Kochia (kochia (Bassia scoparia) [11]; [20]): 10; Plant response rating, Pigweed [12, 20]: 30; Plant response rating, Ryegrass, Italian [13, 20]: 0; Plant response rating, Foxtail, Giant [14, 19]: 0; Plant response rating, Galium [15, 19]: 70
COC(=O)N(c1cc(C(=O)N2CCCC(OC)C2)c(C)cc1C)S(=O)(=O)C(F)(F)F (stereo not drawn) [Compound 115] | 50 | 60 | 50 | 40 | 20 | 60 | 30 | 0 | 0 | 100 | 100 | 40 | 90 | 90 | 30 | 90 | 10 | 30 | 30 | 0 | Plant response rating, Ragweed [5, 20]: 0; Plant response rating, Wheat [6, 19]: 40; Plant response rating, Kochia (kochia (Bassia scoparia) [7]; [19]): 20; Plant response rating, Blackgrass ([8]; 31 g ai/ha): 0; Plant response rating, Corn (corn (Zea mays); [19]): 0; Plant response rating, Barnyardgrass [9, 20]: 50; Plant response rating, Foxtail, Giant [10, 20]: 100; Plant response rating, Kochia (kochia (Bassia scoparia) [11]; [20]): 0; Plant response rating, Pigweed [12, 20]: 100; Plant response rating, Ryegrass, Italian [13, 20]: 70; Plant response rating, Foxtail, Giant [14, 19]: 0; Plant response rating, Galium [15, 19]: 80
Cc1cc(C)c(N(S(=O)(=O)C(F)(F)F)S(=O)(=O)C(F)(F)F)cc1C(=O)N1CCCC(F)C1 (stereo not drawn) [Compound 118] | 90 | 90 | 80 |  | 100 | 40 | 40 | 10 | 0 | 90 | 100 | 0 | 100 | 80 | 30 | 90 | 10 | 30 | 20 | 0 | Plant response rating, Ragweed [5, 20]: 50; Plant response rating, Wheat [6, 19]: 0; Plant response rating, Kochia (kochia (Bassia scoparia) [7]; [19]): 10; Plant response rating, Blackgrass ([8]; 31 g ai/ha): 20; Plant response rating, Corn (corn (Zea mays); [19]): 0; Plant response rating, Barnyardgrass [9, 20]: 0; Plant response rating, Foxtail, Giant [10, 20]: 80; Plant response rating, Kochia (kochia (Bassia scoparia) [11]; [20]): 0; Plant response rating, Pigweed [12, 20]: 100; Plant response rating, Ryegrass, Italian [13, 20]: 40; Plant response rating, Foxtail, Giant [14, 19]: 0; Plant response rating, Galium [15, 19]: 40
COC1CCCN(C(=O)c2cc(N(S(=O)(=O)C(F)(F)F)S(=O)(=O)C(F)(F)F)c(C)cc2C)C1 (stereo not drawn) [Compound 119] | 40 | 40 | 70 | 20 | 80 | 10 | 20 | 0 | 10 | 100 | 100 | 50 | 100 | 80 | 30 | 80 |  |  |  |  | Barnyardgrass plant response rating [1]: 90; Pigweed plant response rating [2, 18]: 70; Ragweed plant response rating [3, 18]: 90; Ryegrass, Italian plant response rating [4, 18]: 90; Plant response rating, Ragweed ([5]; 500 g ai/ha): 100; Wheat plant response rating [6, 18]: 70; Kochia plant response rating (kochia (Bassia scoparia) [7]; [18]): 60; Blackgrass plant response rating [8]: 40; Corn plant response rating (corn (Zea mays); [18]): 30; Plant response rating, Barnyardgrass ([9]; 500 g ai/ha): 100; Plant response rating, Foxtail, Giant ([10]; 500 g ai/ha): 100; Plant response rating, Kochia (kochia (Bassia scoparia) [11]; 500 g ai/ha): 100; Plant response rating, Pigweed ([12]; 500 g ai/ha): 100; Plant response rating, Ryegrass, Italian ([13]; 500 g ai/ha): 100; Foxtail, Giant plant response rating [14, 18]: 80; Galium plant response rating [15, 18]: 90

— patent US20230278972A1, “SUBSTITUTED HALOALKYL SULFONANILIDE HERBICIDES” (FMC Corporation, priority 2020, published 2023)
